This assay has as its target T1, Ketohexokinase (Human, UniProt P50053).
T1 sequence (P50053 whole entry): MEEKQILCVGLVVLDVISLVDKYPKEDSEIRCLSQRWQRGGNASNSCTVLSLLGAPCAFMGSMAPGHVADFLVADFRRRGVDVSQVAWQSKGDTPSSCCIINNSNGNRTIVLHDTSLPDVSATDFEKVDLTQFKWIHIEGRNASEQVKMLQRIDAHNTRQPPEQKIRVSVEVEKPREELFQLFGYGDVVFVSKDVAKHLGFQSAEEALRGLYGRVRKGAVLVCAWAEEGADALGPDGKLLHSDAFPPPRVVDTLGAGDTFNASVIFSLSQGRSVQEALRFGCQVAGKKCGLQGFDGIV
Description: Enzyme Assay.

Results on 2 compounds are retold here after BindingDB's records for patent US9771375 (Janssen Pharmaceutica NV, 2017).

The IC50 is the midpoint of a concentration-inhibition curve. A higher IC50 goes with lower potency.

Description: An enzymatic assay was developed to measure KHK-mediated conversion of D-fructose to Fructose-1-P (F-1-P) using High Throughput Mass Spectroscopy (HTMS) as a means of product detection. […] The assay was carried out in 384-well plate format.

With `CCc1nn(-c2ccccc2)c2nc(-c3ccc(N4CCNCC4)cc3)nc(O)c12` [US9771375, Example 97], the IC50 was 2710 nM.
As to `COc1nn(-c2ccccc2)c2cc(N3CN(C4CCNCC4)C3)ccc12` [US9771375, Example 73], half-maximal inhibition (IC50) was put at 390 nM.
